# According to patent US6417194B1, “Quinolines and quinazolines useful in therapy” (Pfizer, Inc., priority 1997, dated 2002):
# System: human prostate
# Assay: Contractile responses of human prostate
# Settings: antagonist affinity estimate against (−)-noradrenaline contractions of prostatic tissue strips; single antagonist concentration, incubated 2 hours
# Procedure: Contractile Responses of Human Prostate
# Prostatic tissue was cut into longitudinal strips (approximately 3×2×10 mm) and suspended in organ baths under a resting tension of 1 g in Krebs Ringer bicarbonate of the following composition (mM): NaCl (119), KCl (4.7), CaCl2 (2.5), KH2PO4 (1.2), MgSO4 (1.2), NaHCO3 (25), glucose (11), and gassed with 95% O2/5% CO2.
# The solution also contained […]. Tissues were exposed to a sensitising dose of (−)-noradrenaline ([…]) and washed over a 45 minute period. Isometric contractions were obtained in response to cumulative additions of (−)-noradrenaline to obtain control curves in all tissues. A further curve was then generated in the presence or absence of antagonist (incubated for 2 hours). Antagonist affinity estimates (pA2) were determined using a single concentration of competing antagonist, […] where the dose ratio (DR), relative to corresponding controls, was produced by a single concentration of antagonist [A], assuming competitive antagonism and Schild regression close to unity.
smiles,measurement,value
"COc1cc2nc(N3CCCN(C(=O)N4CCOCC4)CC3)nc(N)c2cc1OCC1CCC1 [Example 3, 4-Amino-6-cyclobutylmethyloxy-7-methoxy-2-[4-(4-morpholinecarbonyl)-1,4-diazepan-1-yl]quinazoline]",pA2 value,9.2
